Measured values as given in patent publication US12036226B2, “Methods of treating subjects having diabetes with chronic kidney disease” (Poxel SA, priority 2018, dated 2024).

Assays:
[1] = tested on: subjects with T2DM and CKD stage 3B or 4; test: Phase 1b 28-day safety, tolerability and PK study in subjects with T2DM and CKD stage 3B or 4; assay type: in vivo
Excerpt: An Open Label, Parallel Arm Study to Assess the Safety, Tolerability, and Pharmacokinetics of Imeglimin in Subjects with Type 2 Diabetes Mellitus (T2DM) and Moderate to Severe Chronic Kidney Disease (CKD)
This Phase 1b study is to assess the safety, tolerability and pharmacokinetics (PK) of imeglimin in subjects with T2DM and CKD stage 3B or 4.
Subjects will be randomly allocated to receive one of three treatments or placebo.
Doses which are below the minimally acceptable doses are acceptable if stable for 12 weeks prior to Screening as per prescribing information. […] Primary Outcome Measures […]
Safety can be evaluated by assessment of clinical laboratory tests, physical examinations, vital signs measurements, and ECG readings at various time points during the study, and by the documentation of AEs.
The incidence of treatment-emergent adverse events (TEAE) will be summarized by treatment.
Plasma lactate will be summarized descriptively by absolute value at each visit by treatment group, together with the corresponding changes from baseline.
Pharmacokinetics (PK) data can be descriptively summarized by treatment group. PK parameters will be determined using noncompartmental methods. […] Steady-state can be evaluated using the trough concentration data.

subjects with T2DM = test: 24-week Phase IIb dose-ranging placebo-controlled study in subjects with T2DM; assay type: in vivo, human; conditions: for Mean HbA1c Change from Baseline: Week 24, T2D and Stage 2 and 3a CKD
Experimental: A 24-Week, Phase IIb, Dose-Ranging, Randomized, Double-blind, Placebo-controlled, Parallel-group Safety and Efficacy Study in Subjects with T2DM
The five parallel groups included 4 groups of imeglimin doses (500, 1000, 1500, or 2000 mg twice daily) and 1 placebo group. The primary endpoint was to assess the dose-response in T2D subjects, using change in HbA1c from baseline to week 24 as the primary evaluation criterion. Subjects could be either treatment naïve or treated with any oral antidiabetic monotherapy and were to have an eGFR of ≥50 mL/min/1.73 m^2. A total of 382 subjects were randomized 1:1:1:1:1 to one of the 5 study arms, with 315 subjects completing the study.

Protein binding = assay type: in vitro ADME
[2] = Metabolism in standard in vitro assays; assay type: in vitro ADME
[3] = Imeglimin Total, CKD3b (n = 21)

C[C@H]1N=C(N(C)C)N=C(N)N1 [imeglimin, (6R)—N^2, N^2,6-trimethyl-3,6-dihydro-1,3,5-triazine-2,4-diamine]
Subjects with any study drug related TEAE ([1]; 1500 mg QD, CKD3b (n = 17)): 1 (14%) n, %
Subjects with any study drug related TEAE: Grade 1 - Mild ([1]; 1500 mg QD, CKD3b (n = 17)): 1 (14%) n, %
Subjects with any study drug related TEAE: Grade 2 - Moderate ([1]; 1500 mg QD, CKD3b (n = 17)): 0 n, %
Subjects with any study drug related TEAE: Grade 3 - Severe ([1]; 1500 mg QD, CKD3b (n = 17)): 0 n, %
Subjects with any study drug related TEAE: Grade 4 - Life-threatening ([1]; 1500 mg QD, CKD3b (n = 17)): 0 n, %
Subjects with any study drug related TEAE: Grade 5 - Death ([1]; 1500 mg QD, CKD3b (n = 17)): 0 n, %
TEAE: Gastrointestinal disorders ([1]; 1500 mg QD, CKD3b (n = 17)): 3 (43%) n, %
Subjects with any TEAE ([1]; 1500 mg QD, CKD4 (n = 5)): 3 (60%) n, %
Subjects with any TEAE by maximum severity: Grade 1 - Mild ([1]; 1500 mg QD, CKD4 (n = 5)): 3 (60%) n, %
Subjects with any TEAE by maximum severity: Grade 2 - Moderate ([1]; 1500 mg QD, CKD4 (n = 5)): 0 n, %
Subjects with any TEAE by maximum severity: Grade 3 - Severe ([1]; 1500 mg QD, CKD4 (n = 5)): 0 n, %
Subjects with any TEAE by maximum severity: Grade 4 - Life-threatening ([1]; 1500 mg QD, CKD4 (n = 5)): 0 n, %
Subjects with any TEAE by maximum severity: Grade 5 - Death ([1]; 1500 mg QD, CKD4 (n = 5)): 0 n, %
Subjects with any study drug related TEAE ([1]; 1500 mg QD, CKD4 (n = 5)): 2 (40%) n, %
Subjects with any study drug related TEAE: Grade 1 - Mild ([1]; 1500 mg QD, CKD4 (n = 5)): 2 (40%) n, %
Subjects with any study drug related TEAE: Grade 2 - Moderate ([1]; 1500 mg QD, CKD4 (n = 5)): 0 n, %
Subjects with any study drug related TEAE: Grade 3 - Severe ([1]; 1500 mg QD, CKD4 (n = 5)): 0 n, %
Subjects with any study drug related TEAE: Grade 4 - Life-threatening ([1]; 1500 mg QD, CKD4 (n = 5)): 0 n, %
Subjects with any study drug related TEAE: Grade 5 - Death ([1]; 1500 mg QD, CKD4 (n = 5)): 0 n, %
TEAE: Gastrointestinal disorders ([1]; 1500 mg QD, CKD4 (n = 5)): 2 (40%) n, %
confirmed plasma lactate elevations ([1]; CKD stages 3B and 4, 28 days): no cases of confirmed plasma lactate elevations
lactic acidosis ([1]; CKD stages 3B and 4, 28 days): no lactic acidosis
serious adverse events ([1]; CKD stages 3B and 4, 28 days): no incidence of serious adverse events
AUC by CKD stage ([1]; Day 15, 1500 mg QD and 1000 mg BID treatment groups): increased in the T2DM with CKD stage 4 compared to CKD3B
Subjects with any TEAE [1, 3]: 10 (48%) n, %
Subjects with any TEAE by maximum severity: Grade 1 - Mild [1, 3]: 6 (29%) n, %
Subjects with any TEAE by maximum severity: Grade 2 - Moderate [1, 3]: 4 (19%) n, %
Subjects with any TEAE by maximum severity: Grade 3 - Severe [1, 3]: 0 n, %
Subjects with any TEAE by maximum severity: Grade 4 - Life-threatening [1, 3]: 0 n, %
Subjects with any TEAE by maximum severity: Grade 5 - Death [1, 3]: 0 n, %
Subjects with any study drug related TEAE [1, 3]: 3 (14%) n, %
Subjects with any study drug related TEAE: Grade 1 - Mild [1, 3]: 2 (10%) n, %
Subjects with any study drug related TEAE: Grade 2 - Moderate [1, 3]: 1 (5%) n, %
Subjects with any study drug related TEAE: Grade 3 - Severe [1, 3]: 0 n, %
Subjects with any study drug related TEAE: Grade 4 - Life-threatening [1, 3]: 0 n, %
Subjects with any study drug related TEAE: Grade 5 - Death [1, 3]: 0 n, %
TEAE: Gastrointestinal disorders [1, 3]: 5 (24%) n, %
Subjects with any TEAE ([1]; Imeglimin Total, CKD4 (n = 17)): 8 (47%) n, %
Subjects with any TEAE by maximum severity: Grade 1 - Mild ([1]; Imeglimin Total, CKD4 (n = 17)): 5 (29%) n, %
Subjects with any TEAE by maximum severity: Grade 2 - Moderate ([1]; Imeglimin Total, CKD4 (n = 17)): 3 (18%) n, %
Subjects with any TEAE by maximum severity: Grade 3 - Severe ([1]; Imeglimin Total, CKD4 (n = 17)): 0 n, %
Subjects with any TEAE by maximum severity: Grade 4 - Life-threatening ([1]; Imeglimin Total, CKD4 (n = 17)): 0 n, %
Subjects with any TEAE by maximum severity: Grade 5 - Death ([1]; Imeglimin Total, CKD4 (n = 17)): 0 n, %
Subjects with any study drug related TEAE ([1]; Imeglimin Total, CKD4 (n = 17)): 3 (18%) n, %
Subjects with any study drug related TEAE: Grade 1 - Mild ([1]; Imeglimin Total, CKD4 (n = 17)): 3 (18%) n, %
Subjects with any study drug related TEAE: Grade 2 - Moderate ([1]; Imeglimin Total, CKD4 (n = 17)): 0 n, %
Subjects with any study drug related TEAE: Grade 3 - Severe ([1]; Imeglimin Total, CKD4 (n = 17)): 0 n, %
Subjects with any study drug related TEAE: Grade 4 - Life-threatening ([1]; Imeglimin Total, CKD4 (n = 17)): 0 n, %
Subjects with any study drug related TEAE: Grade 5 - Death ([1]; Imeglimin Total, CKD4 (n = 17)): 0 n, %
TEAE: Gastrointestinal disorders ([1]; Imeglimin Total, CKD4 (n = 17)): 4 (24%) n, %
maximum observed concentrations (Cmax) ([1]; after the morning dose on Day 15): increased in a dose-dependent manner
tolerability ([1]; as CKD severity increased (up to stage 4)): well tolerated
Mean HbA1c Change from Baseline (subjects with T2DM; 500 mg BID (n = 44)): 0.007%
Mean HbA1c Change from Baseline (subjects with T2DM; 1000 mg BID (n = 43)): −0.072%
Mean HbA1c Change from Baseline (subjects with T2DM; 1500 mg BID (n = 41)): −0.502%
Mean HbA1c Change from Baseline (subjects with T2DM; 2000 mg BID (n = 42)): −0.193%
HbA1c lowering compared to placebo (subjects with T2DM; post-hoc analysis, stage 2 and 3a CKD (eGFR <90 mL/min/1.73 m^2, n=211)): improvement in HbA1c lowering as compared to placebo
protein binding (Protein binding): < 8 % bound
metabolism [2]: no appreciable metabolism
